{
  "source": "patent US12691100B2",
  "about": "“NMT inhibitor treatment of a senescence-associated disease or disorder of the liver” (Imperial College Innovations Limited, priority 2020, dated 2026)",
  "key": {"[1]": {"tested_on": "IMR90 ER:RAS cells", "assay": "Senolytic activity under IRE1 inhibition with KIRA6", "assay_type": "cell-based, human", "details": "with 600 nM KIRA6, 4OHT treated cells; FIGS. 15A-B", "description": "High-throughput microscopy survival assay—To assess senolytic effect of drugs, cells were cultured for 7 days, culture media was changed to DM0.5 media and drugs in DMSO were added (<5% v/v final concentration), drugs were replenished after 3 days if assay length was longer than 72 h. Wells were fixed in 4% PFA for 1 hour at day 10 to 14, washed 3 times with PBS and then stained with 1 μg/mL DAPI (w/v, PBS) for 10 minutes. Wells were then washed 3 times with PBS. Optionally plates could be stored at 4° C. for up to 2 weeks and DAPI stained. Image acquisition of DAPI stained cells was performed on an automated InCell Analyser 2000 (GE Healthcare®) and high-content analysis on the InCell Investigator 2.7.3 software used to quantify number of DAPI positive cells per well. A top-hat method was used to segment cell-nuclei based on DAPI stained area and a minimum nuclear area threshold of 80 μm used to exclude debris. For cancer cell lines, nuclear area threshold was reduced to 40 μm. Survival was measured as cell counts relative to DMSO treated quiescent or senescent cells.\nTo investigate whether the activation of UPR caused by NMT inhibition in senescent cells was responsible for the senolytic potential of NMT inhibitors, cells were treated with KIRA6, a selective inhibitor of IRE1, a kinase necessary for the UPR. IMR90 ER:RAS cells undergoing senescence (after induction with 4OHT), were treated with 600 nM KIRA6 (an IRE1 inhibitor) on day 4 post-induction. On day 7 post-induction, cells were treated with Compound 1 or 2 and 600 nM KIRA6. […] Both NMT inhibitor and Kira6 were replenished 3 days after addition of NMT inhibitor (at day 10 post-induction). Data is shown as mean±SD, n represents independent biological experiments."}, "[2]": {"tested_on": "IMR90 ER:RAS cells", "assay": "Unfolded protein response markers (CHOP, XBP1, ATF6) by high throughput microscopy", "assay_type": "cell-based, human", "details": "4OHT treated and control cells; FIGS. 13A-D", "description": "(§1) Immunofluorescence staining was carried out by first fixing wells of 96 well plate at desired timepoint for 1 hour using 4% PFA (w/v, in PBS) followed by washing 3 times with PBS. Wells were then permeabilized using 0.2% Triton® X-100 (v/v, PBS) for 10 min or with 0.5% Triton® X-100 (v/v, PBS) for COPI staining. Wells were then washed twice with PBS to halt permeabilization and then non-specific antibody binding blocked by incubation with a blocking solution for 1 hour at RT. Blocking solution contained 1% BSA (w/v, PBS) supplemented with 0.4% Fish Skin Gelatin (v/v, PBS). Primary antibodies were diluted in respective blocking solution (see ‘Antibodies’ for dilutions), blocking solution removed from well and incubated with primary antibody solution for 1 hour at RT. For BrdU staining primary antibody solution is supplemented with 0.5 U/ul DNase (Sigma) and 1 mM MgCl2 and incubation times reduced to 30 minutes. […]\n(§2) High content image analysis was carried out using the InCell Investigator 2.7.3 software (GE Healthcare®). […] Quantification for nuclear staining was measured as average pixel intensity (grey scale) for the wavelength of fluorophore across the area of the nuclear mask. Cytoplasmic staining quantification was of either the average pixel intensity or the coefficient of variance of pixel intensities within collar area. […]"}, "[3]": {"tested_on": "senescent cells", "assay": "Senolytic activity in old mice (senescent-associated β-galactosidase staining)", "assay_type": "in vivo, C57BL/6J female mice", "details": "~26 month female mice, 10 mg/kg i.p., versus vehicle", "description": "Lung and liver samples frozen in optimal cutting temperature (OCT) were cryosectioned (15 μM) and frozen sections fixed in ice-cold 0.5% Glutaraldehyde (w/v, PBS) for 15 min and washed 1 mM MgCl2/PBS (pH 6.0) for 5 min. β-galactosidase activity was stained for with X-gal staining solution (1 mg ml^−1 X-gal, ThermoFisher Scientific, 5 mM K3(Fe(CN)6), 5 mM K4(Fe(CN)6)) for 18 h at 37° C. Slides were dehydrated and coverslips mounted prior to being imaged using 20× brightfield objective on Zeiss AxioScan Z.1 slide scanner. ImageJ was used to quantify staining by measuring the β-gal stained area as a percentage of the total tissue area excluding luminal spaces."}, "[4]": {"tested_on": "IMR90 ER:RAS cells", "assay": "Golgi dispersal by TGN46 staining, high throughput microscopy", "assay_type": "cell-based, human", "details": "4OHT-induced senescent cells; 7 days after addition of the drugs; FIGS. 10A-B", "description": "as §1, §2"}},
  "data": [
    {"smiles": "Cc1c(NS(=O)(=O)c2c(Cl)cc(-c3ccnc(N4CCNCC4)c3)cc2Cl)c(CC(C)C)nn1C", "note": "[Compound 2]", "values": [
      {"measurement": "Dependence of senolytic activity on IRE1 / UPR", "setting": "[1]", "result": "dependent on IRE1 and the unfolded protein response"},
      {"measurement": "UPR activation (nuclear CHOP, XBP1, ATF6; percentage of cells above threshold)", "setting": "[2]", "result": "causes the induction of the unfolded protein response on senescent cells"},
      {"measurement": "Senescent cells in livers (senescent-associated β-galactosidase staining)", "setting": "[3]; FIG. 17B", "result": "lower levels of senescent cells"},
      {"measurement": "Senescent cells in lungs (senescent-associated β-galactosidase staining)", "setting": "[3]; FIG. 17C", "result": "lower levels of senescent cells"},
      {"measurement": "Golgi dispersal (TGN46 distribution)", "setting": "[4]", "result": "selectively caused Golgi dispersal on senescent cells"}
    ]},
    {"smiles": "Cc1nn(C)c(C)c1CCOc1c(-c2ccc3c(c2)c(CN(C)C)nn3C)ccc(F)c1F", "note": "[Compound 1, 1-(5-(3,4-difluoro-2-(2-(1,3,5-trimethyl-1H-pyrazol-4-yl)ethoxy)phenyl)-1-methyl-1H-indazol-3-yl)-N,N-dimethylmethanamine]", "values": [
      {"measurement": "Dependence of senolytic activity on IRE1 / UPR", "setting": "[1]", "result": "dependent on IRE1 and the unfolded protein response"},
      {"measurement": "UPR activation (nuclear CHOP, XBP1, ATF6; percentage of cells above threshold)", "setting": "[2]", "result": "causes the induction of the unfolded protein response on senescent cells"},
      {"measurement": "Golgi dispersal (TGN46 distribution)", "setting": "[4]", "result": "selectively caused Golgi dispersal on senescent cells"}
    ]}
  ]
}
